# Entries after “also recorded” stand apart in the source; their conditions may differ. Like-named read-outs stand apart in the source and are kept apart here.
# Legend:
# medaka Esr1 (mEsr1) [1] = biological target: T1, medaka Esr1 (mEsr1) (Oryzias latipes, UniProt P50241); experiment: cell-based; format: cell-based, Japanese medaka (Oryzias latipes)
# T1 construct: expressed in transfected cells; host or cells: HEK293 (human embryonic kidney cells), transient transfection with FuGENE HD
# T1 sequence (P50241 1-620): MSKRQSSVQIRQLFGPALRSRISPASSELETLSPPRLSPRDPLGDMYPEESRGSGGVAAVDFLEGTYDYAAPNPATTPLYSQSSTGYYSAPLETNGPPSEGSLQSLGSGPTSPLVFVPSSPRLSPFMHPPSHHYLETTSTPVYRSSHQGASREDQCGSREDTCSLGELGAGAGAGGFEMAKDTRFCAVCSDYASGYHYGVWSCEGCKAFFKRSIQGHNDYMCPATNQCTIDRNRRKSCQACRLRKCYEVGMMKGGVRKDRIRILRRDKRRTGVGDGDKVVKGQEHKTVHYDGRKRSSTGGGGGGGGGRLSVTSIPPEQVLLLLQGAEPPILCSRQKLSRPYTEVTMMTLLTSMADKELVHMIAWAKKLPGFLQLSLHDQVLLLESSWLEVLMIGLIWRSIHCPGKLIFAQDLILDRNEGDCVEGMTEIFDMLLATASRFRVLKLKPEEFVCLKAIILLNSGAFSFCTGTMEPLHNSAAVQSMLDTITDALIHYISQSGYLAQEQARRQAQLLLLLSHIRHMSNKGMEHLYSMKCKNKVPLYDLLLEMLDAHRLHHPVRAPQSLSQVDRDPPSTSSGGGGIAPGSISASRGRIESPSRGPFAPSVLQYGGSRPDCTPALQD
# Protocol: (§1) To support interpretation of the biological effects observed in the FSTRA studies, in vitro RGAs using medaka Esr1 (mEsr1) and medaka ARβ (mARβ) were performed for the 16 test chemicals. In the present study, Esr1 and ARβ, which are ancestral subtypes among Esrs and ARs in Japanese medaka, were selected based on the phylogenetical analyses of Esr and AR with each receptor RGAs (Ogino et al., [2016], [2018]; Tohyama et al., [2015]).
# (§2) The mEsr1 RGA consisting of agonist and antagonist assays were performed according to the methods previously reported (Katsu et al., [2010]; Lange et al., [2012]; Miyagawa et al., [2014]). Briefly, human embryonic kidney cells 293 (HEK293), precultured, were seeded in 96‐well plates at 15,000 cells/well with 200 μl of culture medium, phenol‐red‐free Dulbecco's Modified Eagle's medium (ThermoFisher Scientific K.K., Tokyo, Japan) supplemented with 2‐mM L‐glutamine and 10% charcoal/dextran‐treated fetal bovine serum (Hyclone, UT, USA), and then incubated for 24 h in 5% CO2 at 37°C. After the 24‐h incubation, 20 μl of test medium containing 40 ng of medaka Esr1/pcDNA3.1, 80 ng of ERE‐TK‐Luc, and 20 ng of pRL‐TK‐Rlu and 1.2 μL of transfection reagent FuGENE HD (Promega, WI, USA) were added into each well. The assay plates were incubated for another 4 h in order to transfect the three vectors into the HEK293 cells. After the vectors were successfully transfected, in agonist assay, 24 μl of concentrated test chemical solution was applied to the test medium in the plate wells. […] After chemical treatment for 40 h, luciferase activity of the cells was measured, and the promoter activity was calculated as firefly (Photinus pyralis)‐/sea pansy (Renilla reniformis)‐luciferase activity in each well. The luciferase activities were quantified by a chemiluminescence assay with Dual‐Luciferase Reporter Assay System (Promega) in accordance with the manufacturer's instructions, and luminescence intensity of firefly and sea pansy luciferin was measured using a luminometer, TriStar LB941 (Berthold Technology, Oak Ridge, TN, USA).
# (§3) Effect concentrations, that is, EC50 (a half maximal effective concentration) in the agonist assay and IC50 (a half maximal inhibitory concentration) in the antagonist assay, were estimated by nonlinear curve fitting (e.g., three parameters logistic regression curve) using GraphPad Prism (GraphPad Software Inc., La Jolla, CA, USA).
# medaka Esr1 (mEsr1) [2] = biological target: T1, medaka Esr1 (mEsr1); experiment: Medaka Esr1 reporter gene assay (RGA), antagonist assay with 1 nM E2, HEK293 cells; format: cell-based, Japanese medaka (Oryzias latipes)
# Protocol: as §1, §2, §3
# [3] = mEsr1 RGA agonist assay, ND = no significant response even at the highest assay concentration (in parentheses), read-out: Agonist assay, EC50, Medaka Esr1
# [4] = mEsr1 RGA antagonist assay, 1 nM E2-mediated transactivation, ND = no significant response even at the highest assay concentration (in parentheses), read-out: Antagonist assay, IC50, Medaka Esr1
Compound,EC50 (medaka Esr1 (mEsr1) [1]; [3]),IC50 (medaka Esr1 (mEsr1) [2]),further results
"Cc1cc(O)ccc1Cl [CMP, 4‐Chloro‐3‐methylphenol]",,,"EC50 (medaka Esr1 (mEsr1) [1]; read-out: Agonist assay, EC50, Medaka Esr1, mEsr1 RGA agonist assay, ND = no significant response even at the highest assay concentration (in parentheses)): 61 µM"
"C#C[C@]1(O)CC[C@H]2[C@@H]3CCc4cc(O)ccc4[C@H]3CC[C@@]21C [EE2, 17α‐Ethynylestradiol]",0.00088 µM,,
"CC(=O)N1CCN(c2ccc(OCC3COC(Cn4ccnc4)(c4ccc(Cl)cc4Cl)O3)cc2)CC1 (centres unmarked) [KCZ, Ketoconazole]",,> 10 µM,
"C#C[C@]1(O)CC[C@H]2[C@@H]3CCC4=CC(=O)CC[C@@H]4[C@H]3CC[C@@]21CC [LNG, Levonorgestrel]",1.1 µM,> 100 µM,
"C[C@]12CCC(=O)C=C1CC[C@@H]1[C@@H]2CC[C@@]2(C)[C@H]1CC[C@]2(C)O [MT, 17α‐methyltestosterone]",,,IC50 (medaka Esr1 (mEsr1) [2]; [4]): > 10 µM
"CC(=O)[C@H]1CC[C@H]2[C@@H]3CCC4=CC(=O)CC[C@]4(C)[C@H]3CC[C@]12C [P4, Progesterone]",,> 10 µM,EC50 (medaka Esr1 (mEsr1) [1]): > 10 µM
"CCC(C)(C)c1ccc(O)cc1 [PTH, 4‐tert‐Pentylphenol]",0.97 µM,,
"CCCCCCCCCCCCOS(=O)(=O)[O-].[Na+] [SDS, Sodium dodecyl sulfate]",> 100 µM,,mEsr1 agonist activity (in words) (medaka Esr1 (mEsr1) [1]; highest concentration 100 μM): could not be determined; also recorded: neithEsr agonistic nor antagonistic activity; mEsr1 antagonist activity (in words) (medaka Esr1 (mEsr1) [2]; 1 nM E2-mediated mEsr1 transactivation): no Esr inhibiting activity; also recorded: neithEsr agonistic nor antagonistic activity; IC50 (medaka Esr1 (mEsr1) [2]; [4]): > 100 µM
"C[C@]12C=CC3=C4CCC(=O)C=C4CC[C@H]3[C@@H]1CC[C@@H]2O [TRB, 17β‐Trenbolone]",,> 10 µM,
